# From BindingDB's records for patent WO2025049746 (Eikon Therapeutics, 2025)
# Assays:
# [1] = target: T1, Bifunctional 3'-5' exonuclease/ATP-dependent helicase WRN [480-1251] (UniProt Q14191); test: Biochemical Activity Assays
# T1 construct: 480-1251
# [2] = target: Bifunctional 3'-5' exonuclease/ATP-dependent helicase WRN (Homo sapiens, UniProt Q14191); test: ADP-Glo Kinase Assay
# Experimental: ATPase activity was measured using the ADP-Glo Kinase Assay following the manufacturers recommended protocol.
# Sequence of Bifunctional 3'-5' exonuclease/ATP-dependent helicase WRN (Q14191 whole entry): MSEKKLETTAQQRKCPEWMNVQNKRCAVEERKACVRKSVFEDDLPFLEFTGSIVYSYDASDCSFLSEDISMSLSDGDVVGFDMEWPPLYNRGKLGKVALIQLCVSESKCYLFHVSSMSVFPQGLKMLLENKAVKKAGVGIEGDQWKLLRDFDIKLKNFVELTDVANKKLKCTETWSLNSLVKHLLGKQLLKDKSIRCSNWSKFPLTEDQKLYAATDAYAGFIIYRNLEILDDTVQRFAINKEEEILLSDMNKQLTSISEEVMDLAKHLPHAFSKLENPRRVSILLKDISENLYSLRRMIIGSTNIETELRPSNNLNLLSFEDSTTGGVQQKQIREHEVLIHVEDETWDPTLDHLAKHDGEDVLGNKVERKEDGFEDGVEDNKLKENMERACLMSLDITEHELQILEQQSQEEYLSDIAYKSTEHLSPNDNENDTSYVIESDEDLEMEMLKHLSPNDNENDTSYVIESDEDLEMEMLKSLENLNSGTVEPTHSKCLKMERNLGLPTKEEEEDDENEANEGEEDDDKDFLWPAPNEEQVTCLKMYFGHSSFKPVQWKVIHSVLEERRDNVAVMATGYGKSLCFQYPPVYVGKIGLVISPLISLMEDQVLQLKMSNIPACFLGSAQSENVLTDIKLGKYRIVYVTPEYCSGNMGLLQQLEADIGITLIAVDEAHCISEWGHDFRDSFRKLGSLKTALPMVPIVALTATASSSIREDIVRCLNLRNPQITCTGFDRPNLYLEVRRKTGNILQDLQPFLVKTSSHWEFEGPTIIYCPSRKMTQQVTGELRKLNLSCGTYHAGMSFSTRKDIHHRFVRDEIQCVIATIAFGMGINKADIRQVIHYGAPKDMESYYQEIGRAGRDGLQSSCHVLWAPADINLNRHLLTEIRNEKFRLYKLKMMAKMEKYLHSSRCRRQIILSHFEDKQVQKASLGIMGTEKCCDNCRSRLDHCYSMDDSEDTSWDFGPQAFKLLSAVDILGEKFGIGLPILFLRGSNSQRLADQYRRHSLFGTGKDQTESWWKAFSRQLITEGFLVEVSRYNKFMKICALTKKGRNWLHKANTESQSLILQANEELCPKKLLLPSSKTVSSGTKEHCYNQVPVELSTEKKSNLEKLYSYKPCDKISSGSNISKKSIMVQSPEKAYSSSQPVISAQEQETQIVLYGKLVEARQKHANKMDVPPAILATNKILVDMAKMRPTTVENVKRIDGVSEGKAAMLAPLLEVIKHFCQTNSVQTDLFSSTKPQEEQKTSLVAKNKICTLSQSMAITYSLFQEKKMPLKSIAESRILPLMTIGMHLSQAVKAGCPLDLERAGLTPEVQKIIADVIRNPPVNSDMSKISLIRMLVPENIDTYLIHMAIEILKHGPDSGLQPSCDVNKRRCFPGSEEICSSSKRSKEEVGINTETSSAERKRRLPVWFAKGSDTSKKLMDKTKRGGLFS
# T1 sequence (Q14191 480-1251): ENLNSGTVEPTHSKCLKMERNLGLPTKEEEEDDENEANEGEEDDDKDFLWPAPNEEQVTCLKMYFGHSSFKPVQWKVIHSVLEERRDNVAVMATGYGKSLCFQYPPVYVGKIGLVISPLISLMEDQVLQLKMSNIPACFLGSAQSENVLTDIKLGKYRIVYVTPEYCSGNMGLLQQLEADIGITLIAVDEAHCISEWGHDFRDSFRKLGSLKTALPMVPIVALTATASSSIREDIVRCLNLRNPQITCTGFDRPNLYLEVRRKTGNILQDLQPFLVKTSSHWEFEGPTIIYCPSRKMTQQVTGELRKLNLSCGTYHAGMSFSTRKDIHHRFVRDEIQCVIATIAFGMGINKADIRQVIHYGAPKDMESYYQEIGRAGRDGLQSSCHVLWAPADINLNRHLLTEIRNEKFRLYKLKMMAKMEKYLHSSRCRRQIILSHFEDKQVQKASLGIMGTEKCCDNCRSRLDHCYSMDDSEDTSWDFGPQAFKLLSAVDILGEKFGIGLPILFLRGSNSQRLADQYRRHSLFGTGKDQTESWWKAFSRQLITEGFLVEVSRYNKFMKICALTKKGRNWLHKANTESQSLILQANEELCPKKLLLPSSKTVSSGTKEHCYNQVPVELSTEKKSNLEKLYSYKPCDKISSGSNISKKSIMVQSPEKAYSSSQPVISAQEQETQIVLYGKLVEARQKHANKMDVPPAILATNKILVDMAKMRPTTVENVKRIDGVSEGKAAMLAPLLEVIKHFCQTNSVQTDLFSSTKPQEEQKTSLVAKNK
IC50 [1],IC50 [2],Structure (SMILES)
12.2 nM,14.6 nM,"CCc1c(N2CCN(C(=O)c3ncnc(C)c3O)CC2)c(=O)n2nc(C3=CCOCC3)nc2n1CC(=O)Nc1ccc(OC(F)(F)Cl)cc1 [WO2025049746, Example 72]"
48 nM,43 nM,"CCc1c(N2CCN(C(=O)c3ncnc(C)c3O)CC2)c(=O)n2nc(-c3cc4c(cc3F)C3(CN(C)C3)OC4)nc2n1CC(=O)Nc1ccc(C(F)(F)F)cc1Cl [WO2025049746, Example 273]"
55 nM,57 nM,"CCc1c(N2CCN(C(=O)c3nccc4nc[nH]c34)CC2)c(=O)n2nc(-c3ccc4c(c3)COC4(C)C)nc2n1CC(=O)Nc1ccc(C(F)(F)F)cc1Cl [WO2025049746, Example 456]"
84 nM,524 nM,"CCc1c(N2CCN(C(=O)c3ncnc(C)c3O)CC2)c(=O)n2nc(-c3cncc4c3COCC4)nc2n1CC(=O)Nc1ccc(C(F)(F)F)cc1Cl [WO2025049746, Example 161]"
58 nM,64 nM,"CCc1c(N2CCN(C(=O)c3ncnc(C)c3O)CC2)c(=O)n2nc(-c3ccn4c(cc(=O)n4C(F)F)c3F)nc2n1CC(=O)Nc1ccc(C(F)(F)F)cc1Cl [WO2025049746, Example 335]"
29 nM,28 nM,"CCc1c(N2CCN(C(=O)c3ncnc(C)c3O)CC2)c(=O)n2nc(-c3cc(F)c4nn(C)cc4c3)nc2n1CC(=O)Nc1ccc(C(F)(F)F)cc1Cl [WO2025049746, Example 287]"
37 nM,51 nM,"CCc1c(N2CCN(C(=O)c3ncnc(C)c3O)CC2)c(=O)n2nc(-c3cnc4c(c3)CCO4)nc2n1CC(=O)Nc1ccc(C(F)(F)F)cc1Cl [WO2025049746, Example 157]"
28 nM,25 nM,"CCc1c(N2CC[C@@H]3[C@@H]2CCCN3C(=O)c2ncnc(C)c2O)c(=O)n2nc(-c3ccc4c(c3)COC4)nc2n1CC(=O)Nc1ccc(C(F)(F)F)cc1Cl [WO2025049746, Example 438]"
60 nM,53 nM,"CCc1c(N2CCN(C(=O)c3ncnc(C)c3O)CC2)c(=O)n2nc(-c3cc(C)c4ncccc4c3)nc2n1CC(=O)Nc1ccc(C(F)(F)F)cc1Cl [WO2025049746, Example 336]"
4940 nM,3740 nM,"Cc1ncnc(C(=O)N2CCN(c3c4n(c5nc(-c6ccc7c(c6)COC7(C)C)nn5c3=O)[C@@H](C(=O)Nc3ccc(C(F)(F)F)cc3Cl)C[C@@H]4C)CC2)c1O [WO2025049746, Example 472]"
57 nM,68 nM,"CCc1c(N2CCN(C(=O)c3ncnc(C)c3O)CC2)c(=O)n2nc(-c3cnc4cn(C)nc4c3)nc2n1CC(=O)Nc1ccc(C(F)(F)F)cc1Cl [WO2025049746, Example 300]"
14.7 nM,13.4 nM,"CCc1c(N2CCN(C(=O)c3nc4n(c(=O)c3O)CCOC4)CC2)c(=O)n2nc(N(C)C)nc2n1CC(=O)Nc1ccc(C(F)(F)F)c2c1CC2 [WO2025049746, Example 109]"
37 nM,35 nM,"CCc1c(N2CCN(C(=O)c3ncnc(C)c3O)CC2)c(=O)n2nc(-c3ccc4c(c3)c(C)nn4C)nc2n1CC(=O)Nc1ccc(C(F)(F)F)cc1Cl [WO2025049746, Example 312]"
39 nM,54 nM,"C=C(c1ccc(NC(=O)Cn2c(CC)c(N3CCN(C(=O)c4ncnc(C)c4O)CC3)c(=O)n3nc(-c4ccc5c(c4)COC5)nc23)c(Cl)c1)C(F)(F)F [WO2025049746, Example 419]"
30 nM,36 nM,"CCc1c(N2CCN(C(=O)c3ncnc(C)c3O)CC2)c(=O)n2nc(C3=CCOCC3)nc2n1CC(=O)Nc1ccc(C(F)(F)F)c2scnc12 [WO2025049746, Example 368]"

# Continued, molecule first:
Structure (SMILES),IC50 [1],IC50 [2]
"CCc1c(N2CCN(C(=O)c3ncnc(C)c3O)CC2)c(=O)n2nc(-c3ccc4c(c3)C[C@@H](OC)C4)nc2n1CC(=O)Nc1ccc(C(F)(F)F)cc1Cl [WO2025049746, Example 182]",31 nM,37 nM
"CCc1c(N2CCN(C(=O)c3ncnc(C)c3O)CC2)c(=O)n2nc(-c3ccc4nonc4c3)nc2n1CC(=O)Nc1ccc(C(F)(F)F)cc1Cl [WO2025049746, Example 234]",75 nM,67 nM
"CCc1c(N2CCN(C(=O)c3ncnc(C)c3O)CC2)c(=O)n2nc(-c3ccc4nn(C(F)F)cc4c3)nc2n1CC(=O)Nc1ccc(C(F)(F)F)cc1Cl [WO2025049746, Example 248]",26 nM,24 nM
"CCc1c(N2CCN(C(=O)c3ncnc(C)c3O)CC2)c(=O)n2nc(-c3ccc4c(c3)CC(F)(F)C4)nc2n1CC(=O)Nc1ccc(C(F)(F)F)cc1Cl [WO2025049746, Example 224]",47 nM,47 nM
"CCc1c(N2CCN(C(=O)c3ncnc(C)c3O)CC2)c(=O)n2nc(-c3cc4c(cc3F)COCC4)nc2n1CC(=O)Nc1ccc(C(F)(F)F)cc1Cl [WO2025049746, Example 260]",21 nM,22 nM
"CCc1c(N2CCN(C(=O)c3ncnc(C)c3O)CC2)c(=O)n2nc(-c3ccc4c(c3)C(=O)N(C)C4)nc2n1CC(=O)Nc1ccc(C(F)(F)F)cc1Cl [WO2025049746, Example 186]",45 nM,52 nM
"CCc1c(N2CCN(C(=O)c3ncccc3N=S3(=O)CCC3)CC2)c(=O)n2nc(C3=CCOCC3)nc2n1CC(=O)Nc1ccc(C(F)(F)F)cc1Cl [WO2025049746, Example 37]",56.2 nM,86.3 nM
"CCc1c(N2CCN(C(=O)C3=CCOCC3)CC2)c(=O)n2nc(-c3ncc(O)cn3)nc2n1CC(=O)Nc1ccc(C(F)(F)F)cc1Cl [WO2025049746, Example 436]",50 nM,103 nM
"CCc1c(N2CCN(C(=O)c3ncnc(C)c3O)CC2)c(=O)n2nc(-c3ccc4c(c3)[C@@H](C(F)(F)F)OC4)nc2n1CC(=O)Nc1ccc(C(F)(F)F)cc1Cl [WO2025049746, Example 275]",92 nM,79 nM
"CCc1c(N2CCN(C(=O)c3ncnc(C)c3O)CC2)c(=O)n2nc(-c3cnc4c(ccn4C)c3)nc2n1CC(=O)Nc1ccc(C(F)(F)F)cc1Cl [WO2025049746, Example 252]",21 nM,19 nM
"CCc1c(N2CCN(C(=O)c3ncnc(C)c3O)CC2)c(=O)n2nc(-c3ccc4c(c3)CC(C)(C)O4)nc2n1CC(=O)Nc1ccc(C(F)(F)F)cc1Cl [WO2025049746, Example 194]",67 nM,81 nM
"CCc1c(N2CCN(C(=O)c3ncnc(C)c3O)CC2)c(=O)n2nc(C3=CCOCC3)nc2n1CC(=O)NC1CC2C(C1)C2(F)F (stereo unspecified) [WO2025049746, Example 350]",6000 nM,6830 nM
"CCc1c(N2CCC3C2CCCN3C(=O)c2ncnc(C)c2O)c(=O)n2nc(C3=CCOCC3)nc2n1CC(=O)Nc1ccc(C(F)(F)F)cc1Cl (stereo unspecified) [WO2025049746, Example 347]",84 nM,132 nM
"CCc1c(N2CCN(C(=O)c3nccc4nc[nH]c34)CC2)c(=O)n2nc(-c3ccc4c(c3)OCO4)nc2n1CC(=O)Nc1ccc(C(F)(F)F)cc1Cl [WO2025049746, Example 88]",28.9 nM,48.8 nM
"CCc1c(N2CCN(C(=O)c3nc4n(c(=O)c3O)CCOC4)CC2)c(=O)n2nc(-c3ccc4c(c3)CCOC4)nc2n1CC(=O)Nc1ccc(C(F)(F)F)cc1Cl [WO2025049746, Example 90]",29.2 nM,34.6 nM
"CCc1c(N2CCN(C(=O)c3ncnc(C)c3O)CC2)c(=O)n2nc(-c3ccc4c(c3)CCC4OC(F)F)nc2n1CC(=O)Nc1ccc(C(F)(F)F)cc1Cl (stereo unspecified) [WO2025049746, Example 227]",89 nM,95 nM
"CCc1c(N2CCN(C(C)=O)CC2)c(=O)n2nc(C3=CCOCC3)nc2n1CC(=O)Nc1ccc(C(F)(F)F)cc1Cl [WO2025049746, Example 52]",28.6 nM,39.4 nM
"CCc1c(N2CCN(C(=O)C3(CO)CC3)CC2)c(=O)n2nc(C3=CCOCC3)nc2n1CC(=O)Nc1ccc(C(F)(F)F)cc1Cl [WO2025049746, Example 55]",3350 nM,5740 nM
"CCc1c(N2CCN(C(=O)c3ccnc4cc[nH]c34)CC2)c(=O)n2nc(C3=CCOCC3)nc2n1CC(=O)Nc1ccc(C(F)(F)F)cc1Cl [WO2025049746, Example 46]",36 nM,52.1 nM
"CCc1c(N2CCN(C(=O)c3ncnc(C)c3O)CC2)c(=O)n2nc(-c3ccc4c(c3)C[C@H](C)O4)nc2n1CC(=O)Nc1ccc(C(F)(F)F)cc1Cl [WO2025049746, Example 230]",45 nM,39 nM
"CCc1c(N2CCN(C(=O)c3ncnc(C)c3O)CC2)c(=O)n2nc(-c3ccc4c(c3)CN(C)CC4)nc2n1CC(=O)Nc1ccc(C(F)(F)F)cc1Cl [WO2025049746, Example 308]",49 nM,47 nM
"CCc1c(N2CCN(C(=O)c3ncnc(C)c3O)CC2)c(=O)n2nc(-c3cccc4c3COCC4)nc2n1CC(=O)Nc1c(Cl)cc(C(F)(F)F)c2c1CC2 [WO2025049746, Example 390]",52 nM,84 nM
"CCc1c(N2CCN(C(=O)c3ncnc(C)c3O)CC2)c(=O)n2nc(-c3cccc4nc(C)oc34)nc2n1CC(=O)Nc1ccc(C(F)(F)F)cc1Cl [WO2025049746, Example 23]",30 nM,43.7 nM
"CCc1c(N2CCN(C(=O)c3ncnc(C)c3O)CC2)c(=O)n2nc(-c3ccc4c(c3)C[C@@H](C)O4)nc2n1CC(=O)Nc1ccc(C(F)(F)F)cc1Cl [WO2025049746, Example 231]",49 nM,40 nM
"CCc1c(N2CCN(C(=O)c3ncnc(C)c3O)CC2)c(=O)n2nc(N(C)C)nc2n1CC(=O)Nc1c(Cl)cc(C(F)(F)F)c2c1CC2 [WO2025049746, Example 387]",32 nM,41 nM
"CCc1c(N2CCN(C(=O)c3ncnc(N4CC(OC)C4)c3O)CC2)c(=O)n2nc(-c3ccc4c(c3)COC4)nc2n1CC(=O)Nc1ccc(C(F)(F)F)cc1Cl [WO2025049746, Example 415]",1 nM,3 nM
"CCc1c(N2CCN(C(=O)c3ncnc(C)c3O)CC2)c(=O)n2nc(-c3ccc4c(c3)C(=O)NC4)nc2n1CC(=O)Nc1ccc(C(F)(F)F)cc1Cl [WO2025049746, Example 188]",30 nM,52 nM
"CCc1c(N2CCN(C(=O)c3ncnc(C)c3O)CC2)c(=O)n2nc(-c3ccn4nc(F)cc4c3)nc2n1CC(=O)Nc1ccc(C(F)(F)F)cc1Cl [WO2025049746, Example 251]",25 nM,26 nM
